These results are taken from PubChem BioAssay AID248 (DTP/NCI, 2004).

Several values for one entry are separate records, joined by “and”; a condition that tells them apart may be missing. Identical values can stand only once. Toxic doses and inconclusive results are not listed.

This assay deals with L1210 leukemia ip in BDF1 mice, survival T/C. Briefly: NCI In Vivo Anticancer Drug Screen. Data for tumor model L1210 Leukemia (intraperitoneal) in B6D2F1 (BDF1) mice. Particulars: endpoint: mean survival time, higher = longer survival. The gist of the method:
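Transplanted-tumor mice were given test agent; controls received vehicle only. Survival readings from the two groups were divided (treated over control).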

Setting [1] is: dose: 100.0 mg/kg/injection, schedule: Q04DX003 (ip), vehicle: saline.
The mark [2] stands for this setting: dose: 200.0 mg/kg/injection, schedule: Q04DX003 (ip), vehicle: saline.
Setting [3] is: dose: 400.0 mg/kg/injection, schedule: Q04DX003 (ip), vehicle: saline.

For `CC1CN1CC(O)C(O)CN1CC1C` (stereo unspecified), the T/C by setting is: (dose: 0.07 mg/kg/injection, schedule: Q01DX Z (ip), vehicle: saline) 101 % of control; (dose: 0.07 mg/kg/injection, schedule: Q01DX Z (ip), vehicle: water) 108 % of control; (dose: 0.1 mg/kg/injection, schedule: Q01DX Z (ip), vehicle: saline) 106 % of control; (dose: 0.1 mg/kg/injection, schedule: Q01DX Z (ip), vehicle: water) 110 % of control; (dose: 0.15 mg/kg/injection, schedule: Q01DX Z (ip), vehicle: saline) 106 % of control and 110 % of control; (dose: 0.15 mg/kg/injection, schedule: Q01DX Z (ip), vehicle: water) 118 % of control. Further, the T/C (dose: 0.22 mg/kg/injection, schedule: Q01DX Z (ip), vehicle: saline) is 104 % of control and 114 % of control; the T/C (dose: 0.22 mg/kg/injection, schedule: Q01DX Z (ip), vehicle: water) is 124 % of control; the T/C (dose: 0.26 mg/kg/injection, schedule: Q01DX009 (ip), vehicle: saline) was 160 % of control; the T/C (dose: 0.26 mg/kg/injection, schedule: Q04DX003 (ip), vehicle: saline) is 117 % of control; the T/C (dose: 0.31 mg/kg/injection, schedule: Q01DX001 (ip), vehicle: carboxymethylcellulose (CMC)) is 105 % of control; the T/C (dose: 0.33 mg/kg/injection, schedule: Q01DX015 (ip), vehicle: saline) was 165 % of control. In addition, the T/C by setting is: (dose: 0.33 mg/kg/injection, schedule: Q01DX Z (ip), vehicle: saline) 121 % of control; (dose: 0.4 mg/kg/injection, schedule: Q01DX009 (ip), vehicle: saline) 152 % of control; (dose: 0.5 mg/kg/injection, schedule: Q01DX001 (ip), vehicle: saline) 108 % of control; (dose: 0.5 mg/kg/injection, schedule: Q01DX015 (ip), vehicle: saline) 117 % of control; (dose: 0.6 mg/kg/injection, schedule: Q01DX015 (ip), vehicle: saline) 163 % of control; (dose: 0.62 mg/kg/injection, schedule: Q01DX001 (ip), vehicle: carboxymethylcellulose (CMC)) 121 % of control. Further, the T/C (dose: 1.0 mg/kg/injection, schedule: Q01DX001 (ip), vehicle: saline) is 113 % of control; the T/C (dose: 1.0 mg/kg/injection, schedule: Q01DX015 (ip), vehicle: saline) is 153 % of control and 207 % of control; the T/C (dose: 1.25 mg/kg/injection, schedule: Q01DX001 (ip), vehicle: carboxymethylcellulose (CMC)) was 121 % of control; the T/C (dose: 1.4 mg/kg/injection, schedule: Q04DX003 (ip), vehicle: saline) is 153 % of control; the T/C (dose: 1.8 mg/kg/injection, schedule: Q01DX015 (ip), vehicle: saline) was 97 % of control and 116 % of control; the T/C (dose: 2.0 mg/kg/injection, schedule: Q01DX015 (ip), vehicle: saline) was 207 % of control and 221 % of control. Further, the T/C was 166 % of control (dose: 2.1 mg/kg/injection, schedule: Q04DX003 (ip), vehicle: saline); 150 % of control (dose: 2.5 mg/kg/injection, schedule: Q01DX001 (ip), vehicle: carboxymethylcellulose (CMC)); 152 % of control (dose: 2.5 mg/kg/injection, schedule: Q01DX001 (ip), vehicle: saline); 102 % of control (dose: 3.0 mg/kg/injection, schedule: Q01DX001 (ip), vehicle: saline); 261 % of control (dose: 3.0 mg/kg/injection, schedule: Q01DX015 (ip), vehicle: saline); 160 % of control (dose: 3.3 mg/kg/injection, schedule: Q04DX003 (ip), vehicle: saline). For the same compound, the T/C by setting is: (dose: 4.0 mg/kg/injection, schedule: Q01DX001 (ip), vehicle: saline) 157 % of control; (dose: 4.0 mg/kg/injection, schedule: Q01DX015 (ip), vehicle: saline) 166 % of control; (dose: 5.0 mg/kg/injection, schedule: Q01DX001 (ip), vehicle: carboxymethylcellulose (CMC)) 152 % of control; (dose: 5.0 mg/kg/injection, schedule: Q01DX001 (ip), vehicle: saline) 158 % of control; (dose: 5.5 mg/kg/injection, schedule: Q01DX001 (ip), vehicle: saline) 157 % of control; (dose: 7.5 mg/kg/injection, schedule: Q04DX003 (ip), vehicle: saline) 95 % of control and 257 % of control. Moreover, the T/C (dose: 8.0 mg/kg/injection, schedule: Q01DX015 (ip), vehicle: saline) was 122 % of control and 86 % of control and 87 % of control; the T/C (dose: 10.0 mg/kg/injection, schedule: Q01DX001 (ip), vehicle: carboxymethylcellulose (CMC)) was 236 % of control; the T/C (dose: 10.0 mg/kg/injection, schedule: Q01DX001 (ip), vehicle: saline) is 210 % of control; the T/C (dose: 11.0 mg/kg/injection, schedule: Q01DX001 (ip), vehicle: saline) was 247 % of control and 108 % of control and 116 % of control; the T/C (dose: 15.0 mg/kg/injection, schedule: Q01DX001 (ip), vehicle: saline) is 250 % of control; the T/C (dose: 20.0 mg/kg/injection, schedule: Q01DX001 (ip), vehicle: saline) is 91 % of control. The T/C is 168 % of control (dose: 22.0 mg/kg/injection, schedule: Q01DX001 (ip), vehicle: saline); 120 % of control (dose: 25.0 mg/kg/injection, schedule: Q01DX001 (ip), vehicle: saline); 87 % of control (dose: 30.0 mg/kg/injection, schedule: Q01DX001 (ip), vehicle: saline); 104 % of control (dose: 41.0 micrograms/kg/injection, schedule: Q01DX015 (ip), vehicle: saline); 101 % of control (dose: 50.0 micrograms/kg/injection, schedule: Q01DX009 (ip), vehicle: saline); 108 % of control (dose: 62.0 micrograms/kg/injection, schedule: Q01DX015 (ip), vehicle: saline). Also, the T/C (dose: 75.0 micrograms/kg/injection, schedule: Q01DX009 (ip), vehicle: saline) is 104 % of control; the T/C (dose: 113.0 micrograms/kg/injection, schedule: Q01DX009 (ip), vehicle: saline) was 110 % of control; the T/C (dose: 140.0 micrograms/kg/injection, schedule: Q01DX001 (ip), vehicle: saline) is 113 % of control; the T/C (dose: 210.0 micrograms/kg/injection, schedule: Q01DX001 (ip), vehicle: saline) was 120 % of control.
In the case of `CC(O)(C(=O)O)c1ccccc1` (stereo unspecified), the T/C reads like this: (dose: 75.0 mg/kg/injection, schedule: Q01DX009 (ip), vehicle: other) 99 % of control; under setting [1], 100 % of control; (dose: 150.0 mg/kg/injection, schedule: Q01DX009 (ip), vehicle: other) 94 % of control; under setting [2], 105 % of control; (dose: 300.0 mg/kg/injection, schedule: Q01DX009 (ip), vehicle: other) 100 % of control; under setting [3], 91 % of control.
Take `CCCCN1CCCC(O)C1` (stereo unspecified): the T/C is, setting by setting: under setting [1], 97 % of control; under setting [2], 104 % of control.
With `CC(C)CC(NC(=O)CN)C(=O)O` (stereo unspecified), the T/C reads like this: under setting [1], 107 % of control; under setting [2], 104 % of control; under setting [3], 107 % of control.
As to `Nc1cc(=O)[nH][nH]1`, the T/C runs as follows: (dose: 100.0 mg/kg/injection, schedule: Q01DX009 (ip), vehicle: saline) 98 % of control; under setting [1], 102 % of control; (dose: 200.0 mg/kg/injection, schedule: Q01DX009 (ip), vehicle: saline) 106 % of control; (dose: 200.0 mg/kg/injection, schedule: Q01DX Z (ip), vehicle: carboxymethylcellulose (CMC)) 115 % of control; (dose: 200.0 mg/kg/injection, schedule: Q01DX Z (ip), vehicle: saline) 115 % of control; under setting [2], 107 % of control. For the same compound, the T/C runs as follows: (dose: 300.0 mg/kg/injection, schedule: Q01DX Z (ip), vehicle: carboxymethylcellulose (CMC)) 115 % of control; (dose: 300.0 mg/kg/injection, schedule: Q01DX Z (ip), vehicle: saline) 123 % of control; (dose: 400.0 mg/kg/injection, schedule: Q01DX009 (ip), vehicle: saline) 120 % of control; under setting [3], 105 % of control; (dose: 450.0 mg/kg/injection, schedule: Q01DX Z (ip), vehicle: carboxymethylcellulose (CMC)) 121 % of control; (dose: 675.0 mg/kg/injection, schedule: Q01DX Z (ip), vehicle: saline) 112 % of control.
Take `O=C(NCCc1ccc([N+](=O)[O-])cc1)c1ccc(S(=O)(=O)F)cc1`: the T/C was 103 % of control (dose: 100.0 mg/kg/injection, schedule: Q01DX001 (ip), vehicle: Klucel (hydroxypropylcellulose) (HPC)); 94 % of control (dose: 200.0 mg/kg/injection, schedule: Q01DX001 (ip), vehicle: Klucel (hydroxypropylcellulose) (HPC)); 103 % of control (dose: 400.0 mg/kg/injection, schedule: Q01DX001 (ip), vehicle: Klucel (hydroxypropylcellulose) (HPC)).
Consider `NNC(=O)CNc1ccc(F)c(Cl)c1`, for which the T/C (dose: 25.0 mg/kg/injection, schedule: Q04DX002 (ip), vehicle: saline + alcohol) is 113 % of control; the T/C (dose: 50.0 mg/kg/injection, schedule: Q04DX002 (ip), vehicle: saline + alcohol) is 95 % of control; the T/C (dose: 100.0 mg/kg/injection, schedule: Q04DX002 (ip), vehicle: saline + alcohol) is 98 % of control and 123 % of control.
